Results on one compound are retold here after US10253032B2, “Spiro-lactam NMDA receptor modulators and uses thereof” (Aptinyx Inc., priority 2013, dated 2019).

Each structure is given as a SMILES string.

Experiment [1] has as its target T1, NMDA receptor glycine site, rat cortical membranes (Rattus norvegicus, UniProt P35439).
T1 construct: well washed rat cortical membranes (200 μg); from tissue; host or cells: rat cerebral cortex membranes
Put plainly: [3H] MK-801 binding assay (MK-801 Glycine Site Binding Assay: Rat, Cortex). Conditions: potentiation of [3H]MK-801 binding (5 nM), 50 μM glutamate, 15 min @25° C. The protocol: Assays were conducted as described in Moskal et al. (Moskal, J. R., Kuo, A. G., Weiss, C., Wood, P. L., O'Connor Hanson, A., Kelso, S., Harris, R. B., Disterhoft, S. F., 2005. GLYX-13: a monoclonal antibody-derived peptide that acts as an N-methyl-D-aspartate receptor modulator. Neuropharmacology. 49, 1077-87) The potentiation of [^3H]MK-801 binding (5 nM; 22.5 Ci/mmol) to well washed rat cortical membranes (200 μg) was measured under non-equilibrium conditions (15 min @25° C.) in the presence of increasing concentrations of test compounds and 50 μM glutamate. Zero levels were determined in the absence of any glycine ligand and in the presence of 30 μM 5.7 DCKA. Maximal stimulation was measured in the presence of 1 mM glycine, and 50 μM glutamate was present in all samples. The facilitation of [^3H]MK-801 binding by tests compounds was calculated by using a 3 parameter log agonist vs. response equation (Graph pad Prism, USA) and potency (EC50, expressed in pM) and maximal activity (% maximal stimulation) were calculated for the test compound.

Experiment [2] deals with LTP. Nature of the experiment: LTP (long-term potentiation) augmentation. The conditions noted are these: LTP Concentration 1 uM.

For the compound `NC(=O)C(CO)N1CCCC12CNC2=O` (centres unmarked) [Compound X], the EC50 in experiment [1] stood at 2.43 nM. Moreover, the “LTP: LTP Augmentation” value in experiment [2] came out at 75%.

By EC50 is commonly meant the concentration needed to bring the measured effect to its halfway point.
